Test results as given in article PMC11842588, “A first-in-class selective inhibitor of ERK1/2 and ERK5 overcomes drug resistance with a single-molecule strategy” (Signal Transduction and Targeted Therapy, 2025).

Legend:
[1] = target: ERK1 (Homo sapiens, UniProt P27361); test: ADP-Glo kinase assay; assay type: biochemical; settings: for inhibition at 0.5 µM: read-out: Enzyme inhibitory activity (500 nM, %) ERK1
Procedure: (§1) The full-length human ERK1 or ERK2 with His-tag was cloned into a pET28a vector. hERK1/2 were expressed in Escherichia coli BL21(DE3), and then were purified using sequential Ni-NTA and Superdex 200 column steps. The SEC purified sample was then concentrated to 10 mg/ml and stored at −80 °C with buffer containing 20 mM HEPES pH 7.5, 150 mM NaCl. ERK5 (residues 48–395) containing His and GST tags was cloned into the pFastBac vector, and the recombinant plasmid was extracted. The recombinant plasmid was transformed into the DH10bac strain, and monoclonal was selected for culture. The recombinant Bacmid was then extracted according to the instructions of the Baculovirus Shuttle Vector Bacmid Mini Preparation Kit (Beyotime) and validated by PCR. 1 × 10^6/well Sf9 cells were counted for transfection and then amplified to obtain P3 ERK5 recombinant baculovirus. It was added to 2 × 10^6/mL Sf9 cells and incubated at 27 °C for 72 h on a shaker to express ERK5. Cells were lysed and supernatant was collected on a Ni-NTA for purification, and a 250 mM imidazole eluate was collected. Next, digestion by TEV protease was performed overnight while dialysis was performed in approximately 1000 mL of imidazole-free buffer. The digested ERK5 protein was sequentially purified on the Ni-NTA and GST-tag Purification Resin, followed by size exclusion chromatography on a Superdex 75 column. ERK5 protein was collected and concentrated to 12 mg/ml and stored at −80 °C in buffer containing 50 mM HEPES pH 8.0, 200 mM NaCl, 10% (v/v) glycerol.
(§2) ERK1/2/5 kinase activity assay was conducted using ADP-Glo™ Kinase Assay. 2× ATP solution and 2× kinase & Metal solution were prepared using assay buffer were prepared using assay buffer containing 50 mM Hepes pH 7.5, 10 mM MgCl2; 0.01% Brij35, 1 mM EGTA, 2 mM DTT. Transfer 40 nL compounds to 384 assay plate. Add 2 μL of 2× kinase & Metal solution were mixed and incubated in a 384-assay plate for 10 min at 25 °C. 2 μL of 2×ATP solution was added and incubated at 25 °C for 60 min. And then, each well was supplemented with 4 µL of ADP-Glo^TM reagent and incubated at 25 °C for 40 min. Subsequently, 8 µL of Kinase Detection Reagent was added and incubated at 25 °C for 40 min. Finally, the luminescence signals were recorded. The IC50 values were calculated using GraphPad Prism 9.5 software.

[2] = target: ERK2 (Homo sapiens, UniProt P28482); test: ADP-Glo kinase assay; assay type: biochemical; settings: for inhibition at 0.5 µM: read-out: Enzyme inhibitory activity (500 nM, %) ERK2
ERK2, sequence (P28482 whole entry): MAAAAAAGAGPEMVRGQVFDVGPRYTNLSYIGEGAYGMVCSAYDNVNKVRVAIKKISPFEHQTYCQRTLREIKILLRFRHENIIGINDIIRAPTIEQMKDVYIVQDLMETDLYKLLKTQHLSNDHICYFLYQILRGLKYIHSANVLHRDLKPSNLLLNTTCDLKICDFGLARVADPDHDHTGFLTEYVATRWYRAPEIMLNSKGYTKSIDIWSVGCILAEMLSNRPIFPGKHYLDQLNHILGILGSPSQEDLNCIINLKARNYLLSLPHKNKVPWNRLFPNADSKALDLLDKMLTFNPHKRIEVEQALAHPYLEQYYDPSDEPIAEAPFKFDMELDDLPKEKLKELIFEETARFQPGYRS
Procedure: as §1, §2

[3] = target: ERK5 (Homo sapiens, UniProt Q13164); test: ADP-Glo kinase assay; assay type: biochemical; settings: for inhibition at 0.5 µM: read-out: Enzyme inhibitory activity (500 nM, %) ERK5
ERK5, sequence (Q13164 whole entry): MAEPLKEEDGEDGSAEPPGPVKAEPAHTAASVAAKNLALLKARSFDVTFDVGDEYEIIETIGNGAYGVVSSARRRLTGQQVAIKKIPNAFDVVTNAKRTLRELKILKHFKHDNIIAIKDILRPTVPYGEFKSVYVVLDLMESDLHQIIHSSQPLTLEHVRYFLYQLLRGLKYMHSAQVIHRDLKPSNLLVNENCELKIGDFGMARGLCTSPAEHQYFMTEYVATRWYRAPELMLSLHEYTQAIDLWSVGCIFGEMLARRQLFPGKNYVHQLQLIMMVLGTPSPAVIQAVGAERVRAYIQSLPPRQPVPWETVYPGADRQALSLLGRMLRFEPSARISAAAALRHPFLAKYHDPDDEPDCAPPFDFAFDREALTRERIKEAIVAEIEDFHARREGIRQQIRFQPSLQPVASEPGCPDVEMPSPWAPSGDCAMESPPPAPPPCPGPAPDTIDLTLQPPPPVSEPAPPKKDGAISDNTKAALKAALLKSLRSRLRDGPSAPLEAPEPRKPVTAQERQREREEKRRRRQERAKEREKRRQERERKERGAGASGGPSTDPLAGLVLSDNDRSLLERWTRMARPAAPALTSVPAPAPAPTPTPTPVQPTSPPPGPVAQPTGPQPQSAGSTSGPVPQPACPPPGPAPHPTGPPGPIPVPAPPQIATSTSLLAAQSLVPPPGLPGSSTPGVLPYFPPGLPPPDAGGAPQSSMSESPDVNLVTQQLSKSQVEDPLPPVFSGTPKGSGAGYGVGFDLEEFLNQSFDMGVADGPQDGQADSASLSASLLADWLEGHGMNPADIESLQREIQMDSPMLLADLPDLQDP
Procedure: as §1, §2

[4] = test system: MDA-MB-231 cells; test: MTT cell viability assay; assay type: cell-based; settings: 10 μM
Procedure: (§3) MDA-MB-468 and MDA-MB-436 cells were cultured in Leibovitz’s L-15 medium supplemented with 10% fetal bovine serum. […] All of the cells were cultured at 37 °C in a humidified atmosphere containing 5% CO2.
(§4) Cancer cells were seeded in a density in 96-well plates (2 × 10^3 cells per well). After incubation for 24 h, cancer cells were treated with compounds (0–20 μM) for 72 h.

[5] = test system: MDA-MB-468 cells; test: MTT cell viability assay; assay type: cell-based; settings: 10 μM
Procedure: as §3, §4

ERK1, sequence (P27361 whole entry, the tested form may be a part): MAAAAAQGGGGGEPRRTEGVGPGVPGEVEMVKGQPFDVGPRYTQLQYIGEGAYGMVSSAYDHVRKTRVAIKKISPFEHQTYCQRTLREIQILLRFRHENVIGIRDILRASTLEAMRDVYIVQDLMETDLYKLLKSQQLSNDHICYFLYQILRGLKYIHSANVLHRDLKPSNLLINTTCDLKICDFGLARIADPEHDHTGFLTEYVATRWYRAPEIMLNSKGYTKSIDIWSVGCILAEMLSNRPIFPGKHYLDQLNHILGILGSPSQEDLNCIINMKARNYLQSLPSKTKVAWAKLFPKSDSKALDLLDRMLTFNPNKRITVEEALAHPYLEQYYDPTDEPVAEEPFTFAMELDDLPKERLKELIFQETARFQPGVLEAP

| SMILES | inhibition at 0.5 µM [1] | inhibition at 0.5 µM [2] | inhibition at 0.5 µM [3] | Anti-proliferative activity (10 μM, %) MDA-MB-231 [4] | Anti-proliferative activity (10 μM, %) MDA-MB-468 [5] | Enzyme inhibitory activity (500 nM, %) ERK1 [1] | Enzyme inhibitory activity (500 nM, %) ERK2 [2] | Enzyme inhibitory activity (500 nM, %) ERK5 [3] |
| --- | --- | --- | --- | --- | --- | --- | --- | --- |
| CN1CCN(NC(=O)c2cc(-c3nc(Nc4ccnn4C)ncc3Cl)cs2)CC1 [6a, 4-(5-chloro-2-((1-methyl-1H-pyrazol-5-yl)amino)pyrimidin-4-yl)-N-(4-methylpiperazin-1-yl)thiophene-2-carboxamide] | 95.72 ± 0.65% | 97.4 ± 3.45% | 63.8 ± 0.32% | 15.06 ± 0.35% | 10.78 ± 1.32% | – | – | – |
| CSc1ccc(NC(=O)c2cc(-c3nc(Nc4ccnn4C)ncc3Cl)cs2)cc1 [6ac] | – | – | – | 22.57 ± 1.11% | 18.49 ± 0.23% | 95.98 ± 1.02% | 97.67 ± 0.90% | 69.90 ± 2.56% |
| CC(C)Oc1ccc(NC(=O)c2cc(-c3nc(Nc4ccnn4C)ncc3Cl)cs2)cc1 [6ae] | – | – | – | 15.96 ± 0.09% | 4.62 ± 0.89% | 93.45 ± 1.80% | 95.32 ± 0.08% | 61.02 ± 1.22% |
| COc1ccc(NC(=O)c2cc(-c3nc(Nc4ccnn4C)ncc3Cl)cs2)cc1OC [6ag, 4-(5-chloro-2-((1-methyl-1H-pyrazol-5-yl)amino)pyri-midin-4-yl)-N-(3,4-dimethoxyphenyl)thiophene-2-carboxamide] | – | – | – | 33.67 ± 0.08% | 25.61 ± 0.45% | 92.13 ± 1.04% | 94.53 ± 1.21% | 65.13 ± 0.90% |
| CN1CCN(C(=O)c2cc(-c3nc(Nc4ccnn4C)ncc3Cl)cs2)CC1 [6b] | – | – | – | 3.15 ± 1.22% | 25.81 ± 2.43% | 40.45 ± 1.23% | 39.03 ± 2.13% | 28.02 ± 1.34% |
| CC(C)N1CCN(C(=O)c2cc(-c3nc(Nc4ccnn4C)ncc3Cl)cs2)CC1 [6c] | – | – | – | 5.71 ± 1.21% | 3.51 ± 0.77% | 21.57 ± 2.34% | 14.38 ± 0.24% | 19.12 ± 2.15% |
| Cn1nccc1Nc1ncc(Cl)c(-c2csc(C(=O)NC3CCSCC3)c2)n1 [6d] | – | – | – | 37.21 ± 0.72% | 23.35 ± 2.34% | 93.12 ± 1.89% | 91.52 ± 0.31% | 34.57 ± 1.42% |
| Cn1nccc1Nc1ncc(Cl)c(-c2csc(C(=O)NN3CCOCC3)c2)n1 [6e] | – | – | – | 11.49 ± 1.48% | 0.70 ± 0.45% | 97.82 ± 0.43% | 99.00 ± 0.56% | 70.61 ± 0.98% |
| Cn1nccc1Nc1ncc(Cl)c(-c2csc(C(=O)N[C@H]3CC[C@H](O)CC3)c2)n1 [6f] | – | – | – | 11.85 ± 2.31% | 57.68 ± 1.09% | 89.31 ± 0.87% | 89.54 ± 2.31% | 35.94 ± 1.21% |
| Cc1cc(NC(=O)c2cc(-c3nc(Nc4ccnn4C)ncc3Cl)cs2)ccn1 [6g] | – | – | – | 6.82 ± 2.13% | 20.23 ± 0.32% | 70.32 ± 0.91% | 72.75 ± 2.14% | 73.61 ± 3.12% |
| Cn1nccc1Nc1ncc(Cl)c(-c2csc(C(=O)NCc3cnccn3)c2)n1 [6h] | – | – | – | 23.65 ± 1.27% | 7.43 ± 3.45% | – | – | – |
| Cn1nccc1Nc1ncc(Cl)c(-c2csc(C(=O)Nc3ccccc3)c2)n1 [6i] | – | – | – | 5.65 ± 0.22% | -12.07 ± 2.31% | – | – | – |
| Cn1nccc1Nc1ncc(Cl)c(-c2csc(C(=O)Nc3cccc(F)c3)c2)n1 [6j] | – | – | – | 25.73 ± 0.57% | 10.11 ± 0.76% | – | – | – |
| Cn1nccc1Nc1ncc(Cl)c(-c2csc(C(=O)Nc3cccc(Cl)c3)c2)n1 [6k] | – | – | – | 39.12 ± 1.23% | 23.41 ± 0.48% | 59.39 ± 3.21% | 57.85 ± 0.88% | 36.99 ± 0.32% |
| Cn1nccc1Nc1ncc(Cl)c(-c2csc(C(=O)Nc3cccc(Br)c3)c2)n1 [6l] | – | – | – | 33.90 ± 1.22% | 23.35 ± 2.37% | 47.12 ± 9.23% | 46.65 ± 0.32% | 32.34 ± 0.89% |
| Cn1nccc1Nc1ncc(Cl)c(-c2csc(C(=O)Nc3cccc(C(F)(F)F)c3)c2)n1 [6m] | – | – | – | 34.62 ± 1.24% | 30.41 ± 0.68% | 50.98 ± 3.23% | 53.43 ± 0.43% | 35.45 ± 1.32% |
| Cn1nccc1Nc1ncc(Cl)c(-c2csc(C(=O)Nc3cccc(OC(F)(F)F)c3)c2)n1 [6n] | – | – | – | 43.93 ± 0.21% | 33.21 ± 0.54% | 67.08 ± 0.98% | 66.54 ± 2.11% | 18.64 ±2.32% |
| Cn1nccc1Nc1ncc(Cl)c(-c2csc(C(=O)Nc3cccc(N)c3)c2)n1 [6p] | – | – | – | 33.51 ± 0.32% | 28.42 ± 1.21% | 86.34 ± 0.79% | 84.67 ± 0.65% | 77.49 ± 0.89% |
| Cc1cccc(NC(=O)c2cc(-c3nc(Nc4ccnn4C)ncc3Cl)cs2)c1 [6q] | – | – | – | 29.43 ± 3.25% | 33.20± 0.44% | 80.23 ± 0.68% | 82.11 ±0.61% | 65.90 ± 3.12% |
| CCc1cccc(NC(=O)c2cc(-c3nc(Nc4ccnn4C)ncc3Cl)cs2)c1 [6r] | – | – | – | 15.53 ± 0.90% | 30.21 ± 1.11% | 88.34 ± 1.78% | 89.45 ± 1.55% | 67.34 ± 3.20% |
| Cn1nccc1Nc1ncc(Cl)c(-c2csc(C(=O)Nc3ccc(C(F)(F)F)cc3)c2)n1 [6y] | – | – | – | 8.87 ± 1.11% | 9.83 ± 0.93% | 50.78 ± 0.89% | 51.08 ±2.31% | 23.21 ± 3.45% |
| COc1ccc(NC(=O)c2cc(-c3nc(Nc4ccn(C)n4)ncc3Cl)cs2)cc1 [9a] | – | – | – | 1.23 ± 1.20% | 8.70 ± 3.21% | 41.09 ± 1.05% | 45.57 ± 0.34% | 21.12 ± 2.34% |
| CN(C)Cc1cccc(Nc2ncc(Cl)c(-c3csc(C(=O)Nc4cccc(N(C)C)c4)c3)n2)c1 [18d] | – | – | – | 85.64 ± 1.02% | 50.45 ± 2.12% | – | 23.97 ± 0.90% | 78.85 ± 2.67% |
| COc1cc(N2CCN(C)CC2)ccc1NC(=O)c1cc(-c2nc(Nc3ccnn3C)ncc2Cl)cs1 [H1] | 62.5% | 64.2% | 59.5% | – | – | – | – | – |
